Calls of active or inactive are those of the source. The rule behind the calls is not given here.

The species entered for series [1] is Xenopus laevis. The experiment in a line: (§1) Inhibition of DNA double strand break-induced ataxia telangiectasia mutated activation in Xenopus laevis extract assessed as inhibition of H2AX phosphorylation.
The nature of series [2]: as §1.
The species entered for series [3] is Xenopus laevis. Nature of the series: Inhibition of ataxia telangiectasia mutated-dependent Nbs1 phosphorylation in Xenopus laevis extract assessed as electrophoretic mobility by Western blot analysis.
Series [4] is filed under the species Xenopus laevis. Nature of the series: Inhibition of ataxia telangiectasia mutated-dependent Chk2 phosphorylation in Xenopus laevis extract assessed as electrophoretic mobility by Western blot analysis. Background: A western blot detects proteins with antibodies after separation by electrophoresis.
Series [5] is filed under the species Xenopus laevis. The experiment in a line: Inhibition of DNA double strand break-induced Mre11/Rad50/Nbs1-dependent ATM autophosphorylation at Ser1981.
Series [6] in a line: Inhibition of dimeric recombinant ataxia telangiectasia mutated activation in Xenopus laevis extract in presence of DNA, Mre11/Rad50/Nbs1.
The species named for series [7] is Xenopus laevis. The experiment in a line: Inhibition of ataxia telangiectasia mutated binding to streptavidin-bound biotinylated DNA in Xenopus laevis extract up to 1 mM.
The species entered for series [8] is Xenopus laevis. The experiment in a line: Inhibition of Mer11 binding to streptavidin-bound biotinylated DNA in Xenopus laevis extract up to 1 mM.
The species named for series [9] is Xenopus laevis. The experiment in a line: Inhibition of monomeric ataxia telangiectasia mutated catalytic activity at 50 uM.
The species entered for series [10] is Xenopus laevis. Nature of the series: Induction of FLAG-tagged Mre11/Rad50/Nbs1 dissociation in Xenopus laevis extract at 100 uM.
The test system of a further series is Nucleic Acid. Nature of the series: Inhibition of DNA tethering in Xenopus laevis extract at 10 uM. It is filed as nucleic-acid assay.
Series [11] is filed under the species Xenopus laevis. Nature of the series: Stimulation of Mre11/Rad50/Nbs1-dependent DNA tethering in Xenopus laevis extract at 100 uM.
In series [12] the target is T1, Double-strand break repair protein MRE11 (Homo sapiens) (UniProt P49959).
T1 sequence (whole entry): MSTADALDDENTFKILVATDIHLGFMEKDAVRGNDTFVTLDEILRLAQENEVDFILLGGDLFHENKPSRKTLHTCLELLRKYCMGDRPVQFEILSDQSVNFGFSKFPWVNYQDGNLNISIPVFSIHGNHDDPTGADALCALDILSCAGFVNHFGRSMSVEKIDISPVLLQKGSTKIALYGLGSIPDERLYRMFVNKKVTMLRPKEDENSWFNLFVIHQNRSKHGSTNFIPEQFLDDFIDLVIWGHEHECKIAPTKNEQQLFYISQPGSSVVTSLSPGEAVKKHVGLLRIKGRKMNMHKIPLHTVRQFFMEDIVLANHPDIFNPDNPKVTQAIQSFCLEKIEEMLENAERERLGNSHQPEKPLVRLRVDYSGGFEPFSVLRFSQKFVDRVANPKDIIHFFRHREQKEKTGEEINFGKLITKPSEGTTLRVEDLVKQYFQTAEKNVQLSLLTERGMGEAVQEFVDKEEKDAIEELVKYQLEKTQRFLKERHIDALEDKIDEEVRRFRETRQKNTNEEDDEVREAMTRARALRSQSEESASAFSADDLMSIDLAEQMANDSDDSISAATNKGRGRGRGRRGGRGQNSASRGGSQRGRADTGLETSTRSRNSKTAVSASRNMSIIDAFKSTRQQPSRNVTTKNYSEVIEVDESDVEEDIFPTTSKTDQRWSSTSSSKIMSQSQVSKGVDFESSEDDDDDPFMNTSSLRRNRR
Nature of the series: Inhibition of human Mre11 nuclease activity at 100 uM.

The next series is filed under the species Homo sapiens. The experiment in a line: Inhibition of human Mre11/Rad50/Nbs1-dependent DNA tethering assessed as Rad50-associated adenylate kinase activity at 0.05 to 0.8 mM.
The target of series [13] is T1, Double-strand break repair protein MRE11 (Homo sapiens). The experiment in a line: Inhibition of human Mre11 ExoIII nuclease activity at 100 uM.
The nature of series [14]: Cell cycle arrest in human TOSA4 cells assessed as accumulation at G2 phase at 50 uM after 24 hrs by FACS analysis. It is filed as functional, cell-based.
A short description of series [15]: Cell cycle arrest in human TOSA4 cells assessed as accumulation at G2 phase at 100 uM after 24 hrs by FACS analysis. It is filed as functional, cell-based. Background: In flow cytometry, cells or beads pass a laser one at a time.
Series [16] deals with U2OS. The experiment in a line: Cell cycle arrest in human U2OS cells assessed as accumulation at G2 phase at 100 uM after 24 hrs by FACS analysis. It is filed as functional, cell-based.
Series [17] has as its system U2OS. The experiment in a line: Inhibition of 10 Gy irradiation-induced G2/M check point in human U2OS cells using G2 synchronized cells at 25 uM after 24 hrs by FACS analysis. It is filed as functional, cell-based.
Series [18] has as its system HEK293. The experiment in a line: Cytotoxicity against human HEK293 cells at 25 uM after 24 hrs. Particulars: hek293, 24 h. It is filed as cell-based.
Series [19] deals with HEK293. The experiment in a line: Cytotoxicity against human HEK293 cells at 50 uM after 24 hrs. The format is cell-based. The settings on record: hek293, 24 h.
Another series deals with TOSA4. Nature of the series: Inhibition of gene conversion in human TOSA4 cells transfected with I-Sec1 expressing plasmid assessed as decrease in GFP-positive cells at 25 uM after 24 hrs by gene conversion assay. The format is functional, cell-based.

Consider `O=c1cc(-c2ccccc2)[nH]c(=S)[nH]1`, for which the inhibition result in the series filed under Xenopus laevis [1] is “inactive”.

For orientation: IC50 means the concentration at which inhibition is half-maximal. For `N=C1NC(=O)/C(=C/c2ccc(O)cc2)S1` [MIRIN], the results for the IC50 in [2] and in series [6] were 66 µM and 12 µM, respectively. Also, the inhibition entry (in the series filed under Xenopus laevis [3]; in the series listed under Xenopus laevis [4]; in the series filed under Xenopus laevis [5]; in series [12]; with U2OS [17]; with TOSA4) was “Active” in each case. Further, the inhibition result (in the series listed under Xenopus laevis [7]; in the series filed under Xenopus laevis [8]; in the series filed under Xenopus laevis [9]; in the series on Nucleic Acid; in [13]) was “inactive” each time. The outcome in the series filed under Xenopus laevis [10] and in the series listed under Homo sapiens was inactive. For the same compound, the result (in the series filed under Xenopus laevis [11]; in series [14]; in series [15]; with U2OS [16]) was Active. Besides, the Activity entry with HEK293 [18] and in the series on HEK293 [19] was “Non-toxic” each time.

(Values after ChEMBL document CHEMBL1212698, “A forward chemical genetic screen reveals an inhibitor of the Mre11-Rad50-Nbs1 complex” (Nat Chem Biol, 2008).)
